Measured values reported in patent US6790608B2, “Methods of identifying and ADP-glucose receptor ligand, agonist or antagonist” (The Regents of the University of California, priority 2000, dated 2004).
“Also recorded” adds a separate entry of the source. Where two headings read alike, the source gives them in different places.

Key:
[1] = target: T1, human ADP-glucose receptor (Homo sapiens, UniProt Q9H244); assay: Intracellular calcium mobilization (FLIPR, Fluo4-AM) in CHO cells transiently transfected with the cloned receptor; type: cell-based; conditions: for induction of increase in intracellular Ca2+ / receptor activation: CHO cells cotransfected with receptor, Gα16 and chimeric Gαqi3; for increase in intracellular Ca2+ in untransfected cells: untransfected CHO cells
T1 construct: such that a nucleic acid molecule encoding a full-length ADP-glucose receptor can be amplified; expressed in transfected cells
Procedure: (§1) In order to characterize the function of the encoded receptor, the pCDNA3.1 expression construct containing the amplified receptor gene was transiently transfected into human embryonic kidney (HEK 293) cells or Chinese hamster ovary (CHO) cells. HEK 293 cells were cultured in DMEM containing 10% fetal bovine serum (FBS), and CHO cells were cultured in alpha-MEM with 5% FBS. All cells were kept at 37° C. in a 5% CO2 atmosphere.
(§2) For certain experiments, the cells were transiently cotransfected with the receptor construct and equimolar ratios of the G-protein alpha subunit Gα16 and/or the chimeric subunit […] in pCDNA3.1 (described in Saito et al., Nature 265-269 (1999)). For functional assays measuring intracellular calcium, twenty-four hours after transfection, cells were seeded into black clear-bottom 96-well plates at a density of 50,000 cells/well. Following overnight incubation the cells were loaded for 1 h with 1 μM of the fluorescent calcium indicator dye Fluo4-AM (Molecular Probes) dissolved in assay buffer containing Hank's balanced salts, 20 mM HEPES, 1% FBS, 2.5 mM probenecid, pH 7.4. After loading, the cells were washed three times with assay buffer without FBS. Addition of drugs and measurement of changes in intracellular calcium were performed using a fluorimetric imaging plate reader (FLIPR, Molecular Devices). Agonist responses were determined using the maximum change in fluorescence over baseline.
To enforce coupling of the novel receptor to the phospholipase C pathway, CHO cells were transiently cotransfected with expression constructs containing the amplified receptor DNA, Gα16 and a chimeric Gαq subunit carrying the C-terminal tail of Gαi3.
Dose-response curves were calculated using GraphPad Prism (GraphPad Software Inc.).
In order to determine the preferential G-protein coupling of the ADP-glucose receptor, mobilization of [Ca^2+]i was examined in CHO cells expressing either the receptor alone or in combination with either Gα16 or Gαqi3.

[2] = test system: endogenous ADP-glucose receptor in HEK 293 cells; assay: Intracellular calcium mobilization (FLIPR, Fluo4-AM) in HEK 293 cells; type: cell-based, human
Procedure: as §1, §2
The ADP-glucose receptor construct was also expressed in HEK 293 cells.

guinea pig ileum = assay: Isometric contractions of guinea pig ileal segments in organ bath
Procedure: Ileal segments (about 2 cm) were prepared from male guinea pigs euthanized by asphyxiation with CO2 and mounted in an organ bath filled with Krebs-Ringer bicarbonate (KRB) buffer as described in Thomas et al., Mol. Pharmacol. 44:102-110 (1993). Isometric contractions of the preparations were measured with a force transducer and recorded on a polygraph (Grass Instruments). The contractile responses are expressed as the mass (g) required to generate the measured force. For contractile measurements of field-stimulations, ilea were mounted between platinum ring electrodes connected to a stimulator (Grass SD9). Ilea were electrically stimulated (40 mV, 8 ms duration, 0.2 Hz) for 5 min followed by a resting period of 8-10 min.
Drugs were diluted in KRB and added directly to the bath. For intraluminal drug application a polyethylene tube (I.D.: 2 mm; length: 1.2 cm) was inserted about 3 mm deep into the ileum and fixed with a surgical thread. The other end of the preparation was closed tightly by a thread. The intubated ilea were mounted in the organ bath in such a way that the open end of the polyethylene tube was extending above the buffer surface. Drugs were administered to the ileal lumen using a Hamilton syringe. After each incubation, ilea were washed three times with KRB and allowed to equilibrate for at least 10 min. For some experiments ilea were removed from animals that had been treated with 100 μg/kg pertussis toxin three days prior to the experiment. Dose response curves were obtained in separate experiments for each drug concentration tested in duplicate and EC50 values were calculated using GraphPad Prism.
However, due to the irregular nature of these contractions it was not possible to study dose-response relationships of pharmacological agents in such a preparation. Therefore, field-stimulation was used to elicit contractions that are known to be mediated by neuronal release of acetylcholine activating M3 muscarinic receptors (Cowie et al., Brit. J. Pharmacol. 64:565-580 (1978); Kilbinger et al., Eur. J. Pharmacol. 103:313-320 (1984)).

isolated frog heart = conditions: cyclic perfusion; cited from earlier work
unanesthetised frogs = conditions: systemic administration; cited from earlier work
rat arterial tissues = assay: Contraction of precontracted rat arterial rings in organ bath; conditions: for EC50: read-out: EC50 of relaxation
Procedure: Rat arterial tissues were prepared as described previously (Duckles, S. P., J. Pharmacol. Exp. Ther. 240: 697-700 (1987); Sara Sangha et al., J. Appl. Physiol. 88: 507-517 (2000)). Briefly, male Wistar rats (250 g) were sacrificed by decapitation. The thoracic and abdominal aorta and the carotid artery were immediately removed and cleaned of adhering tissue. Arteries were cut into rings (about 3 mm in length) and mounted into an organ bath filled with Kreb-Ringer-bicarbonate buffer at 37° C. (buffer composition: 119.2 mM NaCl, 25 mM NaHCO3, 4.9 mM KCl, 1.2 mM MgSO4, 11.1 mM glucose, 0.114 mM ascorbic acid, pH 7.4). The buffer was aerated by bubbling with 95% O2:5% CO2. Arterial rings were connected to a force transducer and isometric contractions of the preparations were recorded using MacLab. The contractile responses are expressed as the mass (g) required to generate the measured force. The arterial preparations were equilibrated for one hour at a resting force of 2 g and then challenged several times with 100 mM KCl to establish a baseline.
To determine the effect of ADP-glucose on evoked contractions, arterial rings were precontracted with either 0.3 μM phenylephrine or 0.3 μM serotonin. ADP-glucose was subsequently added to the arterial rings in a cumulative manner to establish a dose-response relationship between ADP-glucose concentration and arterial ring contraction. At the end of each experiment, residual constriction was reversed by the addition of 1 μM acetylcholine. Each arterial preparation was tested in triplicate with each cumulative dosage scheme carried out at least twice. Data are expressed as means±S.E.M. and dose-response curves were calculated with Prism (GraphPad, San Diego).

[3] = CHO cells transiently transfected with receptor construct together with Gα16 and Gαqi3, read-out: EC50 of transient increase in [Ca2+]i
[4] = untransfected HEK 293 cells, endogenous receptor, read-out: EC50 of [Ca2+]i increase
[5] = carotid arteries, serotonin-induced constrictions

T1 sequence (Q9H244 whole entry): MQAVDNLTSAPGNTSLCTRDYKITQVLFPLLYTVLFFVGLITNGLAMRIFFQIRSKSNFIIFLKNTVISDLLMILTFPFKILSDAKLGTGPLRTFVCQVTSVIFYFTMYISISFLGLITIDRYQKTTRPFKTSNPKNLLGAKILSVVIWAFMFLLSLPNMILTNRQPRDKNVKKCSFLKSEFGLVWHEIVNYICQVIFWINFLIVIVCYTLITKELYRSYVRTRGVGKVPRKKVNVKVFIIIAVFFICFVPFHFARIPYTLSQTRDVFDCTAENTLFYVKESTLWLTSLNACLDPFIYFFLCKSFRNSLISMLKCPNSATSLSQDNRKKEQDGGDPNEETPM

Nc1ncnc2c1ncn2[C@@H]1O[C@H](CO)[C@@H](O)[C@H]1O [adenosine]
induction of increase in intracellular Ca2+ / receptor activation [1]: only ADP-glucose and ADP-ribose induced a dose-dependent and transient increase

Nc1ncnc2c1ncn2[C@@H]1O[C@H](COP(=O)(O)OP(=O)(O)O)[C@@H](O)[C@H]1O [ADP]
induction of increase in intracellular Ca2+ / receptor activation [1]: only ADP-glucose and ADP-ribose induced a dose-dependent and transient increase

Nc1nc2c(ncn2[C@@H]2O[C@H](COP(=O)(O)OP(=O)(O)O[C@H]3O[C@H](CO)[C@@H](O)[C@H](O)[C@H]3O)[C@@H](O)[C@H]2O)c(=O)[nH]1 [GDP-glucose]
induction of increase in intracellular Ca2+ / receptor activation [1]: only ADP-glucose and ADP-ribose induced a dose-dependent and transient increase | [Ca2+]i response in HEK 293 cells [2]: did not respond

Nc1ncnc2c1ncn2[C@@H]1O[C@H](COP(=O)(O)OP(=O)(O)OC[C@H]2OC(O)[C@H](O)[C@@H]2O)[C@@H](O)[C@H]1O (stereo partly shown) [ADP-ribose]
induction of increase in intracellular Ca2+ / receptor activation [1]: partial agonist; also recorded: induced a dose-dependent and transient increase | EC50 [1, 3]: 59.4 ± 7.3 µM | increase in intracellular Ca2+ in untransfected cells [1]: not in untransfected cells | [Ca2+]i response in HEK 293 cells [2]: full agonist | EC50 [2, 4]: 38.7 ± 10.6 µM | effect on electrically-evoked contractions (guinea pig ileum; field-stimulated ileum, drug added to bath): very similar inhibitory effects | effect on action potential in the sinus node (isolated frog heart): decrease in the action potential duration and rate of rise in the sinus node | effect on heart rate and contraction force (isolated frog heart): dose-dependent decrease in heart rate and contraction force | effect on heart rate (unanesthetised frogs): reversible increase in heart rate

Cc1cn([C@H]2C[C@H](O)[C@@H](COP(=O)(O)OP(=O)(O)O[C@H]3O[C@H](CO)[C@@H](O)[C@H](O)[C@H]3O)O2)c(=O)[nH]c1=O [TDP-glucose]
induction of increase in intracellular Ca2+ / receptor activation [1]: only ADP-glucose and ADP-ribose induced a dose-dependent and transient increase | [Ca2+]i response in HEK 293 cells [2]: did not respond

Nc1ccn([C@@H]2O[C@H](COP(=O)(O)OP(=O)(O)O[C@H]3O[C@H](CO)[C@@H](O)[C@H](O)[C@H]3O)[C@@H](O)[C@H]2O)c(=O)n1 [CDP-glucose]
induction of increase in intracellular Ca2+ / receptor activation [1]: only ADP-glucose and ADP-ribose induced a dose-dependent and transient increase | [Ca2+]i response in HEK 293 cells [2]: did not respond

Nc1ncnc2c1ncn2[C@@H]1O[C@H](COP(=O)(O)OP(=O)(O)OP(=O)(O)O)[C@@H](O)[C@H]1O [ATP]
induction of increase in intracellular Ca2+ / receptor activation [1]: only ADP-glucose and ADP-ribose induced a dose-dependent and transient increase

Nc1ncnc2c1ncn2[C@@H]1O[C@H](COP(=O)(O)O)[C@@H](O)[C@H]1O [AMP]
induction of increase in intracellular Ca2+ / receptor activation [1]: only ADP-glucose and ADP-ribose induced a dose-dependent and transient increase

Nc1ncnc2c1ncn2[C@@H]1O[C@H](COP(=O)(O)OP(=O)(O)O[C@H]2O[C@H](CO)[C@@H](O)[C@H](O)[C@@H]2O)[C@@H](O)[C@H]1O [ADP-mannose]
induction of increase in intracellular Ca2+ / receptor activation [1]: only ADP-glucose and ADP-ribose induced a dose-dependent and transient increase; also recorded: unable to activate the receptor

Nc1ncnc2c1ncn2[C@@H]1O[C@H](COP(=O)(O)OP(=O)(O)O[C@H]2O[C@H](CO)[C@@H](O)[C@H](O)[C@H]2O)[C@@H](O)[C@H]1O [ADP-glucose, adenosine 5′-diphosphoglucose]
EC50 ([1]; CHO cells cotransfected with receptor and Gαqi3, read-out: EC50 of [Ca2+]i mobilization): 8.2 ± 1.3 µM | induction of increase in intracellular Ca2+ / receptor activation [1]: induced a dose-dependent and transient increase | EC50 ([1]; CHO cells expressing receptor alone, read-out: EC50 of [Ca2+]i mobilization): 24 ± 4.1 µM | EC50 [1, 3]: 2.98 ± 0.22 µM | EC50 ([1]; CHO cells, receptor with Gα16, read-out: EC50 of [Ca2+]i mobilization): 11.8 ± 2.4 µM | increase in intracellular Ca2+ in untransfected cells [1]: not in untransfected cells | [Ca2+]i response in HEK 293 cells [2]: strong mobilization of [Ca^2+]i | EC50 ([2]; HEK 293 cells transiently cotransfected with cloned receptor and Gα16, read-out: EC50 of intracellular Ca2+ release): 2.5 ± 0.82 µM | EC50 [2, 4]: 2.9 ± 0.51 µM | maximal inhibition of histamine-evoked contractions (guinea pig ileum; contractions produced by 0.3 μM histamine): 60% | EC50 (guinea pig ileum; contractions produced by 0.3 μM histamine, read-out: EC50 of inhibition of histamine-evoked contractions): 6.2 ± 1.8 µM | EC50 (guinea pig ileum; field-stimulated, untreated ileum, read-out: EC50 of inhibition of electrically evoked contractions): 6.64 ± 0.4 µM | maximal inhibition of electrically evoked contractions (guinea pig ileum; ileum from pertussis toxin treated animals): 40% | EC50 (guinea pig ileum; ileum from pertussis toxin treated animals, read-out: EC50 of inhibition of electrically evoked contractions): 35.5 ± 5.5 µM | effect on electrically-evoked contractions (guinea pig ileum; ileum punctured to release intraluminal content into the bath): strong inhibition | effect on field-stimulated contractions (guinea pig ileum; intraluminal administration): no effect | maximal inhibition of electrically evoked contractions (guinea pig ileum; maximally effective concentrations, untreated ileum): 90% | effect on contractions produced by oxotremorine M (guinea pig ileum; muscarinic agonist oxotremorine M): unaffected | effect on spontaneous contractions (guinea pig ileum; spontaneous contractions, ileum preparations): inhibition of spontaneous contractions | EC50 (rat arterial tissues; abdominal aorta, precontracted with 0.3 μM phenylephrine): 6.67 ± 1.8 µM | EC50 (rat arterial tissues; abdominal aorta, precontracted with 0.3 μM serotonin): 3.26 ± 0.12 µM | maximal relaxation (rat arterial tissues; abdominal aorta, serotonin-precontracted): about 80% | maximal relaxation (rat arterial tissues; [5]): 40% | EC50 (rat arterial tissues; [5]): 20.5 ± 6.3 µM | EC50 (rat arterial tissues; carotid artery, precontracted with 0.3 μM phenylephrine): 3.1 ± 0.3 µM | maximal relaxation (rat arterial tissues; phenylephrine-precontracted, highest concentration tested, all three tissues): 40%-50% | EC50 (rat arterial tissues; thoracic aorta, precontracted with 0.3 μM phenylephrine): 13.8 ± 2.8 µM | response of serotonin-precontracted thoracic aorta (rat arterial tissues; thoracic aorta, serotonin-precontracted): unresponsive | effect on untreated arterial tissue (rat arterial tissues; untreated arterial tissue at resting force): no effect
